Experimental data taken from ChEMBL document CHEMBL1201862, “PubChem BioAssay data set” (2004).
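Assay format: 96-well plates, 48-hour exposure. GI50 is the concentration that inhibits growth by half.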 Active and inactive are the calls of the source. Cut-off read from the data, not from the text of the source: active = GI50 up to about 1.1 µM and inactive = higher.

Assays:
Test in all cases: NCI-60 cell line screen, 48 h
UACC-257 = system: UACC-257
SK-MEL-28 = system: SK-MEL-28
NCI-H226 = system: NCI-H226
SK-MEL-5 = system: SK-MEL-5
MDA-MB-435 = system: MDA-MB-435
RPMI-8226 = system: RPMI-8226
SW-620 = system: SW-620
T47D = system: T47D
U-251 = system: U-251
BT-549 = system: BT-549
OVCAR-4 = system: OVCAR-4
OVCAR-8 = system: OVCAR-8
OVCAR-5 = system: OVCAR-5
EKVX = system: EKVX
SNB-19 = system: SNB-19
HCC 2998 = system: HCC 2998
MDA-MB-231 = system: MDA-MB-231
OVCAR-3 = system: OVCAR-3
A498 = system: A498
COLO 205 = system: COLO 205

Measured: GI50

Oc1ccc(NCc2cc(O)ccc2O)cc1
inactive: UACC-257 14.9 µM | SK-MEL-28 22.3 µM | NCI-H226 18.9 µM | SK-MEL-5 16.9 µM | MDA-MB-435 16.4 µM | RPMI-8226 4.99 µM | SW-620 11.5 µM | T47D 19.6 µM | U-251 15.7 µM | BT-549 12.7 µM | OVCAR-4 16.5 µM | OVCAR-8 25.8 µM | OVCAR-5 18.3 µM | EKVX 15.7 µM | SNB-19 18.5 µM | HCC 2998 16.9 µM | MDA-MB-231 13.2 µM | OVCAR-3 17.3 µM | A498 28.4 µM | COLO 205 23.3 µM

N#C[C@@]12CCCC(=O)[C@@H]1[C@H]1CCC[C@H]12
inactive: UACC-257 20.2 µM | SK-MEL-28 17.7 µM | NCI-H226 20.7 µM | SK-MEL-5 15.8 µM | MDA-MB-435 17.1 µM | RPMI-8226 11 µM | SW-620 20.6 µM | T47D 20.9 µM | U-251 17.2 µM | BT-549 17.9 µM | OVCAR-4 21.3 µM | OVCAR-8 21.6 µM | OVCAR-5 9.46 µM | EKVX 13.2 µM | SNB-19 21.7 µM | HCC 2998 15.1 µM | MDA-MB-231 14.6 µM | OVCAR-3 10.3 µM | A498 17.1 µM | COLO 205 20 µM
